US20210236698A1, “ANTIMICROBIAL LOCKING SOLUTIONS COMPRISING TAURINAMIDE DERIVATIVES AND BIOLOGICALLY ACCEPTABLE SALTS AND ACIDS, WITH THE ADDITION OF SMALL CONCENTRATIONS OF HEPARIN” (ND Partners, LLC, priority 2004, published 2021)

Legend:
red cells = format: cell-based
Text: The trial results by Dr Allon were examined by researchers in a group of experiments at the Naval Blood Laboratory and Boston University Medical School. […] However, the researchers were not able to determine exactly how their results were relevant to the findings in the University of Alabama clinical trial.

[1] = Long term stability tests of taurolidine in solution; format: physicochemical; settings: citric acid and sodium citrate in combination, versus solution prepared with PVP
Text: In addition, citric acid is a known antioxidant. […] The composition employed in the practice of the present invention preferably also contains a pharmacologically acceptable carrier solution, such as, water, Ringer's solution, or saline.

[2] = Biocidal effectiveness of taurolidine solution with citrate/citric acid pH adjustment; settings: citrates and citric acid, pH of end solution in the vicinity of 5.2 to 6.5
Text: The concentration of taurolidine in such solutions is preferably in the range of from about 0.4 to about 5% by weight, depending upon the solubility of the compound. […] The approach creates a buffer system of citric acid/sodium citrate by adjustment of pH using sodium hydroxide. This buffer system also resists changes in the pH due to the oxidation of formaldehyde to formic acid.

Q: For `O=S1(=O)CCN(CN2CCS(=O)(=O)NC2)CN1` [taurolidine], which “changes to blood in contact with solution” value (red cells) is on record?
A: morphological changes to red cells

Q: What about the “precipitation of solid taurolidine and reaction products from solution” value [1] of the same compound?
A: prevents or severely slows down

Q: What about the biocidal effectiveness [2] of the same compound?
A: substantially increases

Q: For heparin, which “changes to blood in contact with solution” value (red cells) is on record?
A: did not happen
